# Laboratory results from the supplement of paper PMC10307832.
# How the values were obtained:
# Assay in all cases: relative viability (nuclei count vs DMSO), 5 days (fraction); higher = more cells survive
# [1] = test system: 201T
# In short: (§1)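 Nuclei were stained with Hoechst during a one-step fixation (final 0.05% Triton X-100, 1% formaldehyde, 1 ug/ml Hoechst) carried out 5 days after dosing, then counted on 4× images. The cells, lung cancer lines in 1536-well plates, had been dosed by pin tool the day after seeding with one drug alone or a fixed anchor-drug dose plus five library-drug doses (not always all listed) in √10 steps. Relative viability is the nuclei count in treated wells divided by that in vehicle wells, and each value is the median of duplicate plates.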
# [2] = test system: ABC-1
# In short: as §1
# [3] = test system: COR-L 105
# In short: as §1
# [4] = test system: COR-L23
# In short: as §1
# [5] = test system: EKVX
# In short: as §1
# [6] = test system: EPLC-272H
# In short: as §1
# [7] = test system: H3255
# In short: as §1
# [8] = test system: HCC-15
# In short: as §1
# [9] = test system: HCC-44
# In short: as §1
# [10] = test system: HCC-827
# In short: as §1
# [11] = test system: LCLC-103H
# In short: as §1
# [12] = test system: NCI-H1437
# In short: as §1
# [13] = test system: NCI-H1650
# In short: as §1
# [14] = test system: NCI-H1651
# In short: as §1
# [15] = test system: NCI-H1792
# In short: as §1
# [16] = test system: NCI-H1975
# In short: as §1
# [17] = test system: NCI-H2087
# In short: as §1
# [18] = test system: NCI-H358
# In short: as §1
# [19] = test system: NCI-H520
# In short: as §1
# [20] = test system: NCI-H647
# In short: as §1
# [21] = test system: NCI-H661
# In short: as §1
# [22] = test system: NCI-H727
# In short: as §1
# [23] = test system: UMC-11
# In short: as §1
smiles,measurement,setting,value
O=c1[nH]c2ccccc2n1C1CCN(CCCC(c2ccc(F)cc2)c2ccc(F)cc2)CC1 [Pimozide] + CCNC(=O)c1noc(-c2cc(C(C)C)c(O)cc2O)c1-c1ccc(CN2CCOCC2)cc1 [Luminespib] (partner 0.01 µM),relative viability,[1]; first compound 0.08 µM,1.05
same,relative viability,[1]; first compound 0.253 µM,1.02
same,relative viability,[1]; first compound 0.8 µM,0.971
same,relative viability,[1]; first compound 2.53 µM,0.961
same,relative viability,[1]; first compound 8 µM,0.912
same,relative viability,[2]; first compound 0.08 µM,0.75
same,relative viability,[2]; first compound 0.253 µM,0.519
same,relative viability,[2]; first compound 0.8 µM,0.367
same,relative viability,[2]; first compound 2.53 µM,0.675
same,relative viability,[2]; first compound 8 µM,0.433
same,relative viability,[3]; first compound 0.253 µM,0.885
same,relative viability,[3]; first compound 0.8 µM,0.631
same,relative viability,[3]; first compound 2.53 µM,0.879
same,relative viability,[3]; first compound 8 µM,0.687
same,relative viability,[4]; first compound 0.08 µM,0.603
same,relative viability,[4]; first compound 0.253 µM,0.628
same,relative viability,[4]; first compound 0.8 µM,0.594
same,relative viability,[4]; first compound 2.53 µM,0.61
same,relative viability,[4]; first compound 8 µM,0.707
same,relative viability,[5]; first compound 0.08 µM,0.699
same,relative viability,[5]; first compound 0.253 µM,0.86
same,relative viability,[5]; first compound 0.8 µM,0.807
same,relative viability,[5]; first compound 2.53 µM,0.909
same,relative viability,[5]; first compound 8 µM,0.802
same,relative viability,[6]; first compound 0.08 µM,0.622
same,relative viability,[6]; first compound 0.253 µM,0.557
same,relative viability,[6]; first compound 0.8 µM,0.185
same,relative viability,[6]; first compound 2.53 µM,0.244
same,relative viability,[6]; first compound 8 µM,0.206
same,relative viability,[7]; first compound 0.253 µM,0.926
same,relative viability,[7]; first compound 0.8 µM,0.684
same,relative viability,[7]; first compound 2.53 µM,0.883
same,relative viability,[7]; first compound 8 µM,0.799
same,relative viability,[8]; first compound 0.08 µM,0.308
same,relative viability,[8]; first compound 0.253 µM,0.288
same,relative viability,[8]; first compound 0.8 µM,0.257
same,relative viability,[8]; first compound 2.53 µM,0.175
same,relative viability,[8]; first compound 8 µM,0.308
same,relative viability,[9]; first compound 0.08 µM,1.17
same,relative viability,[9]; first compound 0.253 µM,1.02
same,relative viability,[9]; first compound 0.8 µM,0.953
same,relative viability,[9]; first compound 2.53 µM,0.994
same,relative viability,[9]; first compound 8 µM,1.01
same,relative viability,[10]; first compound 0.253 µM,0.58
same,relative viability,[10]; first compound 0.8 µM,0.413
same,relative viability,[10]; first compound 2.53 µM,0.625
same,relative viability,[10]; first compound 8 µM,0.582
same,relative viability,[11]; first compound 0.08 µM,0.942
same,relative viability,[11]; first compound 0.253 µM,1.01
same,relative viability,[11]; first compound 0.8 µM,0.762
same,relative viability,[11]; first compound 2.53 µM,0.899
same,relative viability,[11]; first compound 8 µM,0.948
same,relative viability,[12]; first compound 0.08 µM,1.13
same,relative viability,[12]; first compound 0.253 µM,1.09
same,relative viability,[12]; first compound 0.8 µM,1.12
same,relative viability,[12]; first compound 2.53 µM,0.988
same,relative viability,[12]; first compound 8 µM,0.922
same,relative viability,[13]; first compound 0.08 µM,0.206
same,relative viability,[13]; first compound 0.253 µM,0.204
same,relative viability,[13]; first compound 0.8 µM,0.187
same,relative viability,[13]; first compound 2.53 µM,0.187
same,relative viability,[13]; first compound 8 µM,0.199
same,relative viability,[14]; first compound 0.08 µM,0.91
same,relative viability,[14]; first compound 0.253 µM,0.756
same,relative viability,[14]; first compound 0.8 µM,0.696
same,relative viability,[14]; first compound 2.53 µM,0.867
same,relative viability,[14]; first compound 8 µM,0.807
same,relative viability,[15]; first compound 0.08 µM,0.525
same,relative viability,[15]; first compound 0.253 µM,0.424
same,relative viability,[15]; first compound 0.8 µM,0.403
same,relative viability,[15]; first compound 2.53 µM,0.477
same,relative viability,[15]; first compound 8 µM,0.498
same,relative viability,[16]; first compound 0.08 µM,0.213
same,relative viability,[16]; first compound 0.253 µM,0.337
same,relative viability,[16]; first compound 0.8 µM,0.384
same,relative viability,[16]; first compound 2.53 µM,0.239
same,relative viability,[16]; first compound 8 µM,0.18
same,relative viability,[17]; first compound 0.08 µM,0.192
same,relative viability,[17]; first compound 0.253 µM,0.205
same,relative viability,[17]; first compound 2.53 µM,0.171
same,relative viability,[17]; first compound 8 µM,0.228
same,relative viability,[18]; first compound 0.08 µM,0.317
same,relative viability,[18]; first compound 0.253 µM,0.382
same,relative viability,[18]; first compound 0.8 µM,0.333
same,relative viability,[18]; first compound 2.53 µM,0.399
same,relative viability,[18]; first compound 8 µM,0.206
same,relative viability,[19]; first compound 0.08 µM,0.227
same,relative viability,[19]; first compound 0.253 µM,0.219
same,relative viability,[19]; first compound 0.8 µM,0.194
same,relative viability,[19]; first compound 2.53 µM,0.227
same,relative viability,[19]; first compound 8 µM,0.219
same,relative viability,[20]; first compound 0.08 µM,0.095
same,relative viability,[20]; first compound 0.253 µM,0.0882
same,relative viability,[20]; first compound 0.8 µM,0.196
same,relative viability,[20]; first compound 2.53 µM,0.096
same,relative viability,[20]; first compound 8 µM,0.109
same,relative viability,[21]; first compound 0.08 µM,0.929
same,relative viability,[21]; first compound 0.253 µM,0.879
same,relative viability,[21]; first compound 0.8 µM,0.887
same,relative viability,[21]; first compound 2.53 µM,0.878
same,relative viability,[21]; first compound 8 µM,0.896
same,relative viability,[22]; first compound 0.08 µM,0.321
same,relative viability,[22]; first compound 0.253 µM,0.3
same,relative viability,[22]; first compound 0.8 µM,0.297
same,relative viability,[22]; first compound 2.53 µM,0.593
same,relative viability,[22]; first compound 8 µM,0.25
same,relative viability,[23]; first compound 0.08 µM,1.2
same,relative viability,[23]; first compound 0.253 µM,1.03
same,relative viability,[23]; first compound 0.8 µM,0.976
same,relative viability,[23]; first compound 2.53 µM,1.11
same,relative viability,[23]; first compound 8 µM,1.18
